This note sets out measurements from patent US6858638B2, “Substituted indazoles, compositions containing them, method of production and use” (Aventis Pharma S.A., priority 2002, dated 2005).

One data set deals with T1, Aurora2 kinase (Homo sapiens, UniProt O14965).
T1 construct: A complete recombinant Aurora2 enzyme; His tag (N); made in house; host or cells: E. coli
T1 sequence (O14965 1-403): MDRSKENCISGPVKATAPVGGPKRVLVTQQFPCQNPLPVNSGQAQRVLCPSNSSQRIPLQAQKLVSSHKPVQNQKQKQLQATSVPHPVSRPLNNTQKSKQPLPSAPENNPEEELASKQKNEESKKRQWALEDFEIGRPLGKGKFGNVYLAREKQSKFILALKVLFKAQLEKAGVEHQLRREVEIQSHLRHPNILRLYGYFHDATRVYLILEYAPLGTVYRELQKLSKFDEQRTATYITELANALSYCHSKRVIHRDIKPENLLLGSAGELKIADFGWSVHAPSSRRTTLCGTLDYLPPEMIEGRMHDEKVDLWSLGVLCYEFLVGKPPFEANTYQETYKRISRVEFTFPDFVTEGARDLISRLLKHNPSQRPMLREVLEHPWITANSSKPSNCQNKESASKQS
Briefly: Aurora2 kinase radioactivity scintillation assay using nickel chelate (NuMA substrate). It is filed as biochemical. To be noted: 10 μM; for inhibition at 10 µM: read-out: Aurora2 % inhib at 10 μM. The gist of the method:
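Read-out is 33P incorporation into His-NuMA (Q1687-H2101, 0.5 μM) captured on nickel chelate, after 30 min at 37 °C with 0.02 μM His-Aurora2 and 1 μM ATP. Expressed as percentage inhibition of uncompounded control activity, background subtracted.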

The target in the next data set is T2, human FAK (Homo sapiens, UniProt Q05397).
T2 construct: The complete cDNA of human FAK; made in house; host or cells: baculovirus expression system (vector pFastBac HTc)
T2 sequence (Q05397 whole entry): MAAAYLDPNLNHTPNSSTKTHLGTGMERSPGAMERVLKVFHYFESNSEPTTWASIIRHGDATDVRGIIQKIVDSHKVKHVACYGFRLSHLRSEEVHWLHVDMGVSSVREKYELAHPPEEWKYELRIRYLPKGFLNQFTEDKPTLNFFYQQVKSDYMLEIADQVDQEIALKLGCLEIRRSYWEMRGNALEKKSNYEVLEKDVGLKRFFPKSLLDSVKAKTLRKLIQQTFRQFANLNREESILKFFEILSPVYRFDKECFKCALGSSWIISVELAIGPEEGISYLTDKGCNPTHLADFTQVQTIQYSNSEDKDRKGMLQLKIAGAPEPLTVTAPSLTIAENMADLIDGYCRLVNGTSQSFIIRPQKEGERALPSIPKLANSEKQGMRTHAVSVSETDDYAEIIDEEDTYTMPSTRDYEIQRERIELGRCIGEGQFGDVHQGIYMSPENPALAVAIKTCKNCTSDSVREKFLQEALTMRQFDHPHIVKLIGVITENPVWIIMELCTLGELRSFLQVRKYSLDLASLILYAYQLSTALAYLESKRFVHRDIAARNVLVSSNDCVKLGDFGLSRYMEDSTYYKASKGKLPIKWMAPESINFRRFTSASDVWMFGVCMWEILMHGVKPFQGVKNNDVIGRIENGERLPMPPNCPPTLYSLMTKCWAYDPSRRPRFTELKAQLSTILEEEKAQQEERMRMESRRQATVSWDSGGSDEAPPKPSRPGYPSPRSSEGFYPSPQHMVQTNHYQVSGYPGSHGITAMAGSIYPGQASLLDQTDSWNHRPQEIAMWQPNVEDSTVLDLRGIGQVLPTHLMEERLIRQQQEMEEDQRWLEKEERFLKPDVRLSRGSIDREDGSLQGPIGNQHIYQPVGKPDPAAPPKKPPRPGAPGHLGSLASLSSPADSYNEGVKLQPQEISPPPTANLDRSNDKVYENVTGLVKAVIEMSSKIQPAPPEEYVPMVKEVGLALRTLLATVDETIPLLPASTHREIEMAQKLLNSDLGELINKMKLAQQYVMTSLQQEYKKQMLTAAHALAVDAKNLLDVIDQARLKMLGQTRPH
Description: FAK autophosphorylation inhibition, time resolved fluorescence (HTRF) assay. It is filed as biochemical. The conditions noted are these: for inhibition at 10 µM: read-out: FAK % inhib at 10 μM. The gist of the method:
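Autophosphorylation was detected by europium-cryptate anti-pTyr and XL665 anti-His energy transfer, percent inhibition from the 665/620 ratio relative to no-compound wells. Enzyme: His-FAK full length, 6.6 µg/ml, incubated 1 h at 37 °C, pH 7.2, 15 µM ATP.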
Background: Time-resolved FRET reads energy transfer from a long-lived donor to a nearby acceptor.

The target of another data set is T3, human KDR enzyme (Homo sapiens, UniProt P35968).
T3 construct: The cytoplasmic domain of the human KDR enzyme; GST; made in house; host or cells: SF21 insect cells (baculovirus)
T3 sequence (P35968 786-1356 limits assumed): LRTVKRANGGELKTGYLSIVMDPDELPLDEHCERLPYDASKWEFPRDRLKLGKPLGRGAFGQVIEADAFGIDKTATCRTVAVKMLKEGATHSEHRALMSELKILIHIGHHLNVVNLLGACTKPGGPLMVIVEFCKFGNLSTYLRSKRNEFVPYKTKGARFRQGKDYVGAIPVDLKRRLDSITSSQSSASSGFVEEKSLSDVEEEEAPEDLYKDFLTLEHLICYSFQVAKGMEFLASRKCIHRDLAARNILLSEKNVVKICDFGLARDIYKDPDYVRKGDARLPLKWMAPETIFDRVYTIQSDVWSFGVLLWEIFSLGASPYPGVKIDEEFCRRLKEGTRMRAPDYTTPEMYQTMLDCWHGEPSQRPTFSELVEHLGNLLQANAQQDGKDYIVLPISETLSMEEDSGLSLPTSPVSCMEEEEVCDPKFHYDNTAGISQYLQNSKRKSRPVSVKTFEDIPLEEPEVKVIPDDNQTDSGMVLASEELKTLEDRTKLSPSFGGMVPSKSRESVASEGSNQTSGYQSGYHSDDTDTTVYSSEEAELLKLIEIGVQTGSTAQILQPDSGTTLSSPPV
Description: KDR substrate (PLCγ) phosphorylation, scintillation assay. Format: biochemical. The conditions noted are these: 10 μM; for inhibition at 10 µM: read-out: KDR % inhib at 10 μM. The gist of the method: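 Values are percent inhibition relative to the compound-free control, read by scintillation counting of 33P incorporation after EDTA stop. Baculovirus/SF21-expressed GST-KDR cytoplasmic domain (100 ng) acted for 1 h at 37 °C in pH 7.2 MOPS kinase buffer. The substrate was GST-PLCγ SH2-SH3 (2 μg), added with γ33P-ATP and 2 μM unlabeled ATP.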

The test system of a further data set is c-Src protein. Description: Src kinase phosphorylation of biotinylated cdc2 substrate, fluorescence (DELFIA). It is filed as biochemical, human. As for the experimental part: The inhibition of the Src kinase is evaluated by measuring the phosphorylation of the biotinylated cdc2 substrate (Pierce) detected by fluorescence (DELFIA) using an antiphosphotyrosine antibody labeled with Europium, in 96-well Wallac plates. The c-Src protein used is a recombinant human protein produced in Baculovirus, comprising the SH3 and SH2 and the catalytic domains. The enzyme, the substrate and the various concentrations of test compounds are placed in the well in a 50 mM Tris buffer containing 10 mM MgCl2. The reaction is initiated by adding 10 μM of ATP. After incubation for 60 minutes at 30° C., the reaction is stopped by adding 75 mM EDTA. 50 μl are taken from each well and transferred into a plate coated with streptavidin. After incubation for 30 minutes at 25° C., the wells are washed with a washing buffer (Wallac) and then the antiphosphotyrosine antibody (PY20-Europium [Perkin Elmer]) is added in a volume of 75 μl. The plate is incubated for 30 minutes at 25° C. and then an “Enhancer” solution (Wallac) is added before reading the fluorescence using a fluorimeter (Perkin Elmer). The background noise is evaluated in triplicate in wells containing the substrate and the antibody in the absence of enzyme. The activity of the enzyme is measured (in triplicate) in the wells containing all the reagents in the absence of compound. The inhibition of the Src activity is expressed as percentage inhibition of the activity of the control determined in the absence of compound. The compound PP2 (Calbiochem) is included at various concentrations in each experiment as an inhibition control.

Data set [1] has as its target T4, human IGF1R cytoplasmic domain (Homo sapiens, UniProt P08069).
T4 construct: The human IGF1R cytoplasmic domain was cloned; made in house; host or cells: SF21 insect cells (baculovirus)
Description: IGF1R autophosphorylation inhibition, time resolved fluorescence (HTRF) assay. To be noted: 10 μM. It is filed as biochemical. The gist of the method:
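GST-tagged human IGF1R cytoplasmic domain from SF21 cells incubated with compound in 50 mM Hepes pH 7.5, 5 mM MnCl2, 50 mM NaCl, […] ATP. Autophosphorylation detected by HTRF (Eu-K anti-phosphotyrosine, XL665 anti-GST) after EDTA/KF stop; percentage inhibition versus no-compound control.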

Setting [2] is: 10 μM (values without asterisk).

A word on the melting point: it is the temperature of the solid-liquid transition.

T4 sequence (P08069 960-1367 limits assumed): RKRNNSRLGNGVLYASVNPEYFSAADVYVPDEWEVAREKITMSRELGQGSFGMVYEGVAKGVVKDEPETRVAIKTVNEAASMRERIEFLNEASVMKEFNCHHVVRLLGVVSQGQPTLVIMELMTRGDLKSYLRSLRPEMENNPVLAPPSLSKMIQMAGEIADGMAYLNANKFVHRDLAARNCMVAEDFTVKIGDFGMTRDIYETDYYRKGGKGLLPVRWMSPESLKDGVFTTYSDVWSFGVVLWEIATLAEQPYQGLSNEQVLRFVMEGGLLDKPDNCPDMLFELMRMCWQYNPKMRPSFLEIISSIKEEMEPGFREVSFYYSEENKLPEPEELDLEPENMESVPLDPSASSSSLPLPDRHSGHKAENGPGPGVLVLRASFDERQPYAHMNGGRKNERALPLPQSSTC

Take `CS(=O)(=O)c1ccccc1S(=O)(=O)Nc1ccc2[nH]nc(/C=C/C(=O)O)c2c1.Cl` [Example 80, (E)-3-[5(2-Methylsulfonylbenzenesulfonylamino)-1H-indazol-3-yl]-acrylic acid]: the melting point amounted to 170 °C. Also, on Aurora2 kinase, the inhibition at 10 µM came out at 89%. Further, the inhibition at 10 µM at human FAK (setting [2]) amounted to 66%. Moreover, the inhibition at 10 µM at human KDR enzyme is 32%.
For the molecule `O=S(=O)(Nc1ccc2[nH]nc(-c3ccccc3)c2c1)c1ccccc1Br` [Example 139, 2-Bromo-N-(3-phenyl-1H-indazol-5-yl)-benzenesulfonamide], in the data set on c-Src protein, the “SRC % inhib at 10 μM” value was determined as 51%. Also, the inhibition at 10 µM at Aurora2 kinase turned out to be 96%; at human FAK (setting [2]), 53%; at human KDR enzyme, 96%.
Consider `O=C(Nc1n[nH]c2ccc(NS(=O)(=O)c3cccc(F)c3)cc12)c1ccccc1` [Example 23, N-[5-(3-Fluorobenzenesulfonylamino)-1H-indazol-3-yl]benzamide], for which the melting point worked out at 225 °C. In addition, at Aurora2 kinase, the inhibition at 10 µM turned out to be 99%. For the same molecule, the inhibition at 10 µM on human FAK (setting [2]) came to 93%.
Turning to `O=S(=O)(Nc1ccc2[nH]nc(-c3ccccc3)c2c1)C1CCCCC1` [Example 99, N-(3-Phenyl-1H-indazol-5-yl)cyclohexanesulfonamide], the melting point was 160 °C. The inhibition at 10 µM at Aurora2 kinase was 79%. For the same molecule, the inhibition at 10 µM on human FAK (setting [2]) turned out to be 44%. Moreover, the inhibition at 10 µM at human KDR enzyme was 46%.
Consider `CCCCN(CCCC)c1cccc2c(S(=O)(=O)Nc3ccc4[nH]nc(-c5ccccc5)c4c3)cccc12` [Example 147, 5-Dibutylamino-N-(3-phenyl-1H-indazol-5-yl)naphthalene-1-sulfonamide], for which the “SRC % inhib at 10 μM” value in the data set on c-Src protein is reported as 88%. The inhibition at 10 µM at Aurora2 kinase turned out to be 86%; at human FAK (setting [2]) it was 0%; on human KDR enzyme, 96%.
Molecule `CS(=O)(=O)c1ccccc1S(=O)(=O)Nc1ccc2[nH]nc(C(=O)Nc3ccccc3)c2c1` [Example 18, N-Phenyl-5-(2-methylsulfonylbenzenesulfonylamino)-1H-indazole-3-carboxamide] gave a melting point of 258 °C. The inhibition at 10 µM on Aurora2 kinase amounted to 97%. For the same molecule, the inhibition at 10 µM on human FAK (setting [2]) is 89%. Further, the inhibition at 10 µM at human KDR enzyme stood at 18%.
The corresponding values for `CS(=O)(=O)c1ccccc1S(=O)(=O)Nc1ccc2[nH]nc(-c3ccsc3)c2c1` [Example 51, 2-Methylsulfonyl-N-(3-thiophen-3-yl-1H-indazol-5-yl)benzenesulfonamide] are 249 °C, 88%, 90% and 55%.
`CS(=O)(=O)c1ccccc1S(=O)(=O)Nc1ccc2[nH]nc(Br)c2c1` [Example 38, N-(3-Bromo-1H-indazol-5-yl)-2-methylsulfonylbenzenesulfonamide]: the “SRC % inhib at 10 μM” value with c-Src protein is 56%. The inhibition at 10 µM at Aurora2 kinase amounted to 86%; at human FAK (setting [2]) it was 69%; on human KDR enzyme, 3%.
In turn, `Cc1n[nH]c2ccc(NS(=O)(=O)c3ccc(Cl)c(Cl)c3)cc12` [Example 25, 3,4-Dichloro-N-(3-methyl-1H-indazol-5-yl)benzenesulfonamide] registered a melting point of 184 °C. Also, the inhibition at 10 µM on Aurora2 kinase was 50%. For the same molecule, the inhibition at 30 µM on human FAK (30 μM (values marked *), read-out: FAK % inhib at 30* μM) was determined as 38%. Further, on human KDR enzyme, the inhibition at 10 µM worked out at 11%.
With `COc1ccc(-c2n[nH]c3ccc(NS(=O)(=O)c4ccccc4)cc23)cc1` [Example 31, N-[3-(4-Methoxyphenyl)-1H-indazol-5-yl]benzenesulfonamide], the melting point worked out at 172 °C. For the same molecule, on Aurora2 kinase, the inhibition at 10 µM is 90%. For the same molecule, the inhibition at 10 µM at human FAK (setting [2]) is 75%. The inhibition at 10 µM at human KDR enzyme stood at 98%.
Consider `CS(=O)(=O)c1ccccc1S(=O)(=O)Nc1ccc2[nH]nc(CCc3ccc(F)cc3)c2c1` [Example 75, N-{3-[2-(4-Fluorophenyl)ethyl]-1H-indazol-5-yl}-2-methylsulfonylbenzenesulfonamide], for which the melting point was determined as 234 °C. Also, the inhibition at 10 µM at Aurora2 kinase worked out at 87%. Further, on human FAK (setting [2]), the inhibition at 10 µM is 82%. At human KDR enzyme, the inhibition at 10 µM was found to be 35%.
The corresponding values for `COC(=O)c1ccc(-c2n[nH]c3ccc(NS(=O)(=O)c4ccccc4S(C)(=O)=O)cc23)cc1` [Example 68, Methyl 4-[5-(2-methylsulfonylbenzenesulfonamino)-1H-indazol-3-yl]benzoate] are 244 °C, 95%, 91% and 85%.
The corresponding values for `CS(=O)(=O)c1ccccc1S(=O)(=O)Nc1ccc2[nH]nc(CCc3ccc(Cl)cc3)c2c1` [Example 77, N-{3-[2-(4-Chlorophenyl)ethyl]-1H-indazol-5-yl}-2-methylsulfonylbenzenesulfonamide] are 215 °C, 93%, 73% and 36%.
`CC(=O)Nc1ccccc1-c1n[nH]c2ccc(NS(=O)(=O)c3ccccc3S(C)(=O)=O)cc12` [Example 48, N-{2-[5-(2-Methylsulfonylbenzenesulfonylamino)-1H-indazol-3-yl]phenyl}acetamide] yielded a melting point of 245 °C. For the same molecule, the inhibition at 10 µM at Aurora2 kinase was 42%. The inhibition at 10 µM at human FAK (setting [2]) was determined as 5%. Also, the inhibition at 10 µM on human KDR enzyme worked out at 9%.
On to `O=S(=O)(Nc1ccc2[nH]ncc2c1)c1ccccc1` [Example 24, N-(1H-Indazol-5-yl)benzenesulfonamide], for which the melting point amounted to 179 °C. Besides, the inhibition at 10 µM at Aurora2 kinase came out at 60%. Besides, the inhibition at 10 µM at human FAK (setting [2]) is 76%. Moreover, the inhibition at 10 µM at human KDR enzyme came to 10%.
Molecule `CS(=O)(=O)c1ccccc1S(=O)(=O)Nc1ccc2[nH]nc(-c3cccs3)c2c1` [Example 50, 2-Methylsulfonyl-N-(3-thiophen-2-yl-1H-indazol-5-yl)benzenesulfonamide] showed a melting point of 246 °C. Moreover, the “IGF1R % inhib at 10 μM” value in data set [1] was determined as 63%. For the same molecule, the “Aurora2 % inhib at 10 μM” value on Aurora2 kinase was 91%. Moreover, the “FAK % inhib at 10 μM” value on human FAK (10 μM (values without asterisk), 10 µM) came to 99%. Also, the “KDR % inhib at 10 μM” value on human KDR enzyme was determined as 80%.
Molecule `CS(=O)(=O)c1ccccc1S(=O)(=O)Nc1ccc2[nH]nc(CCc3ccccc3)c2c1` [Example 90, 2-Methylsulfonyl-N-(3-phenethyl-1H-indazol-5-yl)benzenesulfonamide] came in with a melting point of 192 °C. The inhibition at 10 µM on Aurora2 kinase was found to be 100%. Moreover, the inhibition at 10 µM on human FAK (setting [2]) was found to be 89%. Besides, the inhibition at 10 µM at human KDR enzyme was 45%.
